The Cmax is the highest concentration seen after dosing.

The test system of data set [1] is citrated whole blood. Briefly: RapidTEG (rTEG) test of blood spiked with anticoagulant. It is filed as biochemical, human. The source says: (§1) The TEG clotting assay was used to determine if low, normal, and high doses of dabigatran, rivaroxaban, and apixaban could be detected in blood spiked with these compounds. Three oral anticoagulants (OAC), namely dabigatran, rivaroxaban, and apixaban, were spiked into blood obtained from 14 healthy volunteer human donors. For each OAC tested, citrated blood from three donors was spiked with three different concentrations of the active drug (i.e., the compound). The spiked blood samples and control samples spiked with diluent were tested with the TEG® 5000 Thrombelastograph® Hemostasis Analyzer (Haemonetics Corporation, Braintree, Mass., USA) using the Kaolin and RapidTEG® reagents (Haemonetics). Each sample was run in triplicate. All samples were tested with and without ecarin (purchased from Enzyme Research Laboratories, South Bend, IN). This study was IRB approved and all donors were over 18 and signed informed consent forms.
The RapidTEG (rTEG) test incorporated both tissue factor and kaolin to generate the conventional kaolin parameters as well as the TEG-ACT parameter, which is measured in seconds. The TEG-ACT is equivalent to the Activated Clotting Time (see Chavez J. J. et al., Anesth. Analg. 99:1290-1294, 2004) and has a normal range of 86 to 118 seconds. A prolonged TEG-ACT time indicates slower clot formation. In addition, velocity curves derived from the above mentioned kaolin and rTEG tests were plotted using TEG software. These curves represent the speed of clot propagation (MRTG, Maximum Rate of Thrombus Generation; and TMRTG, Time to Maximum Rate of Thrombus Generation) (see FIG. 3B).
For the RapidTEG (rTEG) test, the reagent was reconstituted with 20 μL diluent water, and allowed to stand for 5 minutes per manufacturer instructions. Ten μL of this reconstituted reagent was added to the TEG cup with 20 μl 0.2M CaCl2 for recalcification.
(§2) 340 μL of the citrated blood sample was added to the cup with these two reagents, and the contents of the cup were mixed 3 times by drawing the contents of the cup up into the pipette and redispensing it into the cup. The test was started immediately after mixing and allowed to run until the MA parameter had defined. The rTEG with ecarin test was performed as the rTEG test above, using 20 μL of an ecarin/CaCl2 solution (0.16M CaCl2; 19EU/mL ecarin).

Data set [2] concerns blood from healthy volunteers. Briefly: Thromboelastography R time of spiked blood in the presence of the FXa reagent. It is filed as biochemical, human. The note with it: in vitro spiking, increasing concentrations. As for the experimental part:
Blood from healthy volunteers known not to be taking any oral anticoagulant and without any other significant health issues are analyzed using the FXa or the Ecarin reagent in a TEG® hemostasis analyzer. The FXa reagent (i.e., the Factor Xa reagent) is used to detect the presence (or absence) of an anticoagulant in the blood component being tested. In absence of any oral anticoagulant, the FXa reagent will accelerate the clotting process and result in a very short R-time. In presence of direct thrombin inhibitors and/or anti-Factor Xa anticoagulant(s), the process is slowed down and will cause elongation of the R-time. This difference in R-time is utilized to detect the presence of the oral anticoagulant. The R-time generated from multiple donors was used to construct a reference range. Blood was spiked with either direct thrombin inhibitors or anti-Xa(s) at different concentrations and analyzed using the FXa reagent or the Ecarin reagent. The drug concentrations chosen represent the published therapeutic ranges for these two classes of drugs. This assay was repeated in multiple donors to account for possible donor variations.

Data set [3] has as its system citrated whole blood. The data set can be described thus: TEG kaolin with ecarin test of spiked blood. It is filed as biochemical, human.
Source text: as §1
For the kaolin test, 1 mL of citrated blood sample was mixed with kaolin and 340 microliters (μL) of this blood was added to a TEG cup containing 20 μL of 0.2M CaCl2 for recalcification. The kaolin with ecarin test was performed in a similar fashion, using 20 μL of an ecarin/CaCl2 solution (0.16 M CaCl2; 19 EU/mL ecarin).
Ecarin is derived from the venom of the saw-scaled viper, Echis carinatus. Ecarin activates prothrombin (the precursor of thrombin—see FIG. 5). This activation of prothrombin by ecarin produces meizothrombin, a prothrombin-thrombin intermediate which has a low level of procoagulant enzymatic activity.
Healthy human volunteers (who are not being administered any anticoagulant), donated blood. Following donation, the blood collected from the donors (which was added to citrate to prevent clotting) was divided into portions, and portions of the blood were spiked with either nothing, dabigatran, or rivaroxaban. The portions were then assayed using thromboelastography, including assays performed in the presence of ecarin.

Data set [4] concerns citrated whole blood. The data set can be described thus: TEG Kaolin test of blood spiked with anticoagulant. Type of data set: biochemical, human.
Source text: as §1
Dabigatran stock was prepared from the active dabigatran moiety (Alsachim, France) by dissolution in 0.1M HCl and further dilution in 1:1 DMSO:H20. […] Tubes of citrated blood were spiked with this dabigatran stock to create final concentrations of 500, 200, and 50 ng/mL of citrated whole blood.
Rivaroxaban stock was prepared by agitation of a 20 mg Xarelto tablet (Jannsen, Titusville, N.J.) in a 1:1 DMSO: H20 solution, which was diluted to a final concentration of 20 ng/uL rivaroxaban in 1:1 DMSO:H20. Tubes of citrated blood were spiked with this rivaroxaban stock to create final concentrations of 500, 89, and 22 ng/mL in citrated whole blood. […] Apixaban stock was prepared in a similar manner from a 2.5 mg Eliquis tablet (Bristol-Myers Squibb, New York, N.Y.), with final concentrations of 1000, 500, and 250 ng/mL in whole blood. Apixaban is approved for prevention of VTE in elective hip or knee replacement surgery (2.5 mg BID) and for prevention of stroke and systemic embolism in patients with non-valvular AF (5 mg BID) (see Bristol-Myers SP, EEIG. apixaban summary of product characteristics). […] Control samples, prepared for each tested drug, included a solvent control containing only citrated blood and the diluent used to dilute the drug stock, and an unadulterated citrate blood tube.
Testing was performed on TEG-5000 analyzers (Haemonetics Corp., Braintree, Mass., USA) using Kaolin vials, 0.2M CaCl2, RapidTEG (rTEG) vials, diluent water, and disposable clear cups and pins provided by the manufacturer (Haemonetics, Braintree, Mass.), and ecarin (Enzyme Research Laboratories, South Bend, Ind.). All testing was performed in triplicate at each dose, and allowed to continue until the MA (maximum amplitude) parameter defined. The various components of the TEG tracing are depicted in FIG. 3A. The Kaolin test generates an R parameter, which is measured in minutes, and is the time elapsed from the initiation of the test until the point where the onset of clotting provides enough resistance to produce a 2 mm amplitude reading on the TEG tracing. This parameter represents the initiation phase of coagulation related to the function of enzymatic clotting factors. The R parameter has a normal range of 5 to 10 min for kaolin. A prolonged R time indicates slower clot formation. K is a measurement of the time interval from the split point to the point where fibrin cross-linking provides enough clot resistance to produce a 20 mm amplitude reading. The α angle is the angle formed by the slope of a tangent line traced from the R to the K time and a central line measured in degrees. K time and the α angle denote the rate at which the clot strengthens, and is representative of thrombin's cleaving of the available fibrinogen into fibrin. The MA indicates the point at which clot strength reaches its maximum amplitude, measured in millimeters on the TEG tracing, and reflects the end result of maximal platelet-fibrin interaction via the GPIIb-IIIa receptors (see Khurana S et al., J Lab Clin Med. 130:401-411, 1997). […]

The conditions of data set [5]: cited from earlier work.
Data set [6] has as its system citrated whole blood. The data set can be described thus: rTEG with ecarin test of spiked blood. It is filed as biochemical, human.
Source text: as §1, §2

Another data set deals with porcine plasma. Briefly: TEG 6S DTI channel R-time, porcine experimental trauma model. Type of data set: in vivo. As for the experimental part: The TEG®6S system (Haemonetics Corp., Braintree, Mass.) is based on viscoelasticity measurements using resonance frequency and disposable multi-channel microfluidic cartridges. Blood and plasma from healthy volunteers were spiked with dabigatran in the therapeutic range (in increasing concentrations) and tested with an OAC cartridge with an ecarin based, direct thrombin inhibitor (DTI) channel. This channel was also evaluated with porcine plasma from an experimental trauma model (n=6) where dabigatran levels were measured with dilute TT (Hemoclot®). TEG 6s R-time (reaction time) was correlated to the drug levels.

Regarding `COc1ccc(-n2nc(C(N)=O)c3c2C(=O)N(c2ccc(N4CCCCC4=O)cc2)CC3)cc1` [apixaban, Apixaban], in the data set on citrated whole blood [1], the “K, α and MRTG parameters versus control or between studied concentrations” value is listed as “did not show any statistical difference”; the “TMRTG parameter sensitivity to presence of drug” value was “not”. In the data set on citrated whole blood [1] (all studied concentrations), the “MA values versus control” value is recorded as “did not change”. Further, the “TEG ACT parameter versus control group” value with citrated whole blood [1] (all tested concentrations (except rivaroxaban 22 ng/mL)) is recorded as “significantly different”. The “ACT time versus non-spiked blood sample” value with citrated whole blood [1] (medium and higher concentrations) is “significantly higher”. Also, the “R-time compared to the reference range, FXa reagent” value in data set [2] is given as “dose dependent elongation of the R-time”. For the same molecule, the “R time in the presence versus absence of ecarin” value in the data set on citrated whole blood [3] (FIGS. 8A-8C) is “equivalent and significant shortening of R time”. For the same molecule, the “MA values with ecarin relative to samples run without ecarin” value with citrated whole blood [3] (kaolin test) was “statistically different”. In the data set with citrated whole blood [3] (treated and control groups), the “R, K and TMRTG values on addition of ecarin to the kaolin test” value was “significant decrease”; the “α and MRTG values on addition of ecarin to the kaolin test” value is recorded as “significant increase”. Besides, in the data set on citrated whole blood [4] (250 ng/mL, still within normal range), the “MA versus control group” value is on record as “significantly different from the control group”. Moreover, the “R time versus non-spiked blood sample” value with citrated whole blood [4] (highest concentration tested) is recorded as “significantly higher”. Besides, the “R, K, α, and MRTG parameters, statistical significance versus control” value in the data set with citrated whole blood [4] (three concentrations per drug, Example 1) is reported as “able to detect the presence of all tested concentrations”. Further, the half-lives compared result in data set [5] (in vivo) is “shorter half-lives than dabigatran”. Further, in data set [5] (oral dose of 20 mg), the Cmax is on record as 460 ng/mL. Further, the increased half-life result in data set [5] (patients with severe renal impairment compared to healthy volunteers) is “up to 44%”. The “TEG-ACT times on addition of ecarin to the RapidTEG test” value in the data set with citrated whole blood [6] is on record as “significantly decreases”. In addition, the “RapidTEG α angle when ecarin was added” value with citrated whole blood [6] (any of the studied concentrations) is on record as “did not change”. For the same molecule, the “RapidTEG K values when ecarin was added” value with citrated whole blood [6] (highest and lowest concentrations) is reported as “significantly decreased”.

B1: idarucizumab: reversal agent that reverses the anticoagulant effect of dabigatran (Boehringer Ingelheim) (antibody, chains of the INN, looked up, V domains shown)
VH: QVQLQESGPGLVKPSETLSLTCTVSGFSLTSYIVDWIRQPPGKGLEWIGVIWAGGSTGYNSALRSRVSITKDTSKNQFSLKLSSVTAADTAVYYCASAAYYSYYNYDGFAYWGQGTLVTVSS
VL: DVVMTQSPLSLPVTLGQPASISCKSSQSLLYTDGKTYLYWFLQRPGQSPRRLIYLVSKLDSGVPDRFSGSGSGTDFTLKISRVEAEDVGVYYCLQSTHFPHTFGGGTKVEIK
As to B1, the “R-time after administration of the reversal agent” value in the data set with porcine plasma (after dabigatran, trauma model, baseline 3.4±0.6 min) was 3.6 ± 0.6 min. In addition, in the data set on porcine plasma (five separate swine plasma samples, FIG. 16), the “R time upon administration of the reversal agent” value is “returned to baseline”.

The values above are taken from patent US10954549B2, “Detection and classification of an anticoagulant using a clotting assay” (Haemonetics Corporation, priority 2014, dated 2021).
